Data reported in PMC10223284, “Category-Based Toxicokinetic Evaluations of Data-Poor Per- and Polyfluoroalkyl Substances (PFAS) using Gas Chromatography Coupled with Mass Spectrometry” (Toxics, 2023).
“And” between values parts separate entries of the source, which are not always exact repeats. Equal values may be shown once. Read-outs that look alike come from different tables or passages of the source.

Assays:
[1] = Hepatic metabolic stability (hepatocyte clearance) assay, substrate depletion; format: in vitro ADME, human; conditions: both sexes, human; for half-life at 1 μM: read-out: Linear Regression Results, Best-Fit Values, Half Life
In short: (§1)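 Substrate depletion of 1 μM compound, 37 °C, with pooled human hepatocytes (50-donor, 50,000 cells/100 μL) in William's E; samples quenched in acetonitrile up to 240 min, triplicate time points. Intrinsic clearance (μL/min/million hepatocytes) and half-life derived from semi-log slope, background-adjusted using media-only and inactivated-cell controls; compounds with ≥50% abiotic loss at T120 excluded.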

[2] = test system: pooled human cryopreserved primary hepatocyte suspensions; test: as above; format: in vitro ADME; conditions: for Linear Regression Results, Best-Fit Values, Slope: hepatocyte time course
In short: as §1

[3] = Abiotic loss in negative controls of the hepatocyte clearance assay (cell-free media, metabolically inactivated hepatocytes); format: in vitro ADME; conditions: for Hep_Stab_Fail: flag for stability failure in hepatocyte clearance assay controls (1 or Fst = fail, 0 = pass)
In short: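 Abiotic stability was checked with media-only and inactivated-hepatocyte controls, run at T0 and T240 or, on rerun, at more time points. Compound at 1 μM, 37 °C, acetonitrile quench. Loss rates served for background subtraction, and ≥50% loss by T120 meant exclusion.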

[4] = In vitro-in vivo extrapolation (IVIVE) to Css and administered equivalent dose (AED); parameters: species or system human; conditions: for Clhep: IVIVE, hepatocyte Clint scaled to whole-liver clearance; for AED: administered equivalent dose from LOEC and Css; for Fub: fub=fup/(B:P), Fub set to 1 if needed; for CLint: scaled with HPGL 110 mill cells/g, Vl 1596 g
In short: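 Administered equivalent doses come from pairing modelled Css with literature in vitro LOECs. Css itself is predicted by IVIVE from experimental hepatic Clint, scaled up to whole-liver clearance in L/h, and experimental fraction unbound in plasma. That fraction was adjusted to unbound-in-blood via blood:plasma partitioning.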

[5] = test system: human primary cells; conditions: cited from earlier work
[6] = in vitro; conditions: both, human, plasma
[7] = test system: human plasma; test: Ultracentrifugation (UC) plasma protein binding assay, fraction unbound in plasma (fup); conditions: for Aqueous Fraction / Aqueous Fraction, Run-specific Avg: amount measured in aqueous fraction after ultracentrifugation, unit not given; for Aqueous Fraction: replicates A, B, C; for Aqueous Fraction, Run-specific Avg: run average; for fup: human plasma, 10 μM, ultracentrifugation, 37 °C; for Fup.Med: median fraction unbound in plasma; for Fup.Med / Fup.point: UC assay Level4; for Fup.point: point estimate of fraction unbound in plasma
[8] = hepatocytes, background-subtracted, read-out: Bkgd-Sub Clearance (µL/min/106 hepatocytes)
[9] = hepatocytes, hepatocyte clearance, Conc 1000 nM, not background adjusted, read-out: Unadj Clint
[10] = hepatocytes, pooled human hepatocyte suspensions, 1 μM, read-out: In Vitro Clint
[11] = hepatocytes, unadjusted hepatocyte intrinsic clearance, read-out: Unadj in vitro Clint
[12] = hepatocytes, hepatocyte time course, NS = slope not significant, read-out: Linear Regression Results, Best-Fit Values, Clearance
[13] = hepatocytes, hepatocyte time course, NS = slope not significant
[14] = s9, Bayesian analysis median, 1 μM assay concentration (Table S9), read-out: Clint.1.Med
[15] = hepatocyte incubation, Rep 1-3, start conc 1000 nM
[16] = buffer, no cells control, 0 vs 240 min, read-out: No Cells BkgdCl, Half Life
[17] = Assuming 1 mg/kg/day dose rate, BW 70 kg
[18] = human steady-state plasma concentration, assuming 1 mg/kg/day dosage
[19] = BioSeek lowest-observed effect concentration used for AED
[20] = minimum lowest-observed effect concentration, BioSeek platform
[21] = Fraction Unbound (fu), Run-specific Avg, average of one UC run
[22] = Fraction Unbound (fu), individual replicates A, B, C of the UC run named in c8
[23] = Mean fu, fraction unbound in human plasma, ultracentrifugation, some values based on eLOQ
[24] = Mean Fu, mean fraction unbound in human plasma over all UC replicates/runs
[25] = heat treated hepatocytes, Rep 1-3

## OCCC(F)(F)C(F)(F)C(F)(F)C(F)(F)F [4:2 Fluorotelomer alcohol]
[1]; [8]
  hepatocyte CLint at 1 μM: 37.7 µL/min/1e6 cells
[1]; [9]
  hepatocyte CLint at 1 μM: 45.6 µL/min/1e6 cells
[1]; [10]
  hepatocyte CLint at 1 μM: 37.7 µL/min/1e6 cells
[1]; [11]
  hepatocyte CLint at 1 μM: 45.6 µL/min/1e6 cells
[1]; [12]
  hepatocyte CLint at 1 μM: 45.6 µL/min/1e6 cells
[1]; [13]
  half-life at 1 μM: 0.506 h
[1]; [14]
  hepatocyte CLint at 1 μM: 306 µL/min/1e6 cells
[2]; [15]
  Concentration (nM), Time 0 min: 12113.7 nM and 7313.14 nM
  Concentration (nM), Time 15 min: 1692.86 nM and 1166.53 nM and 1804.74 nM
  Concentration (nM), Time 30 min: 339.856 nM and 404.508 nM and 458.803 nM
  Concentration (nM), Time 60 min: 47.9903 nM and 38.9317 nM and 58.7749 nM
  Concentration (nM), Time 120 min: 18.0283 nM and 18.9716 nM and 31.4203 nM
  Concentration (nM), Time 240 min: 21.5215 nM and 17.4089 nM and 13.0166 nM
[2]
  Linear Regression Results, Best-Fit Values, Slope: -0.02281
[3]; [16]
  half-life at 1 μM: 2.92 h
[3]
  Hep_Stab_Fail: 0
[3]; no cells control, 0 vs 240 min
  No Cells BkgdCl, Slope: -0.003956
[3]; Rep 1-3
  Negative Controls, No cells (NC), concentration at 0 min: 10000 nM
  Negative Controls, No cells (NC), concentration at 240 min: 3870 nM
[4]; [17]
  Css: 0.0547 mg/L and 0.21 uM
[4]
  Clhep: 51.672 L/h
  AED: 9.6507 mg/kg/day
  Fub: 0.3055
  CLint: 6620368 µL/min
[4]; [18]
  Css: 0.21 µM
[5]; [19]
  LOEC: 2.00 µM
[5]; [20]
  LOEC: 2 µM
[6]; [21]
  fraction unbound: 0.17
[6]; [22]
  fraction unbound: 0.206
[6]; [23]
  fraction unbound: 0.168
[7]
  Aqueous Fraction: 1744.82 and 3486.44 and 1261.67
  Aqueous Fraction, Run-specific Avg: 2164.31
  fup: 0.1680
  Fup.Med: 0.235
  Fup.point: 0.231

## NC(=O)C(F)(F)C(F)(F)C(F)(F)F [Heptafluorobutyramide]
[1]; [8]
  hepatocyte CLint at 1 μM: 19.9 µL/min/1e6 cells
[1]; hepatocytes, hepatocyte clearance, Conc 1000 nM, background adjusted, read-out: Bkgd Adj Clint
  hepatocyte CLint at 1 μM: 19.9 µL/min/1e6 cells
[1]; [9]
  hepatocyte CLint at 1 μM: 19.9 µL/min/1e6 cells
[1]; hepatocytes, hepatocyte intrinsic clearance adjusted for background (abiotic) loss, read-out: Bkgd_adj_Clint
  hepatocyte CLint at 1 μM: 19.9 µL/min/1e6 cells
[1]; [10]
  hepatocyte CLint at 1 μM: 19.9 µL/min/1e6 cells
[1]; [11]
  hepatocyte CLint at 1 μM: 19.9 µL/min/1e6 cells
[1]; [12]
  hepatocyte CLint at 1 μM: 19.9 µL/min/1e6 cells
[1]; [13]
  half-life at 1 μM: 1.16 h
[2]; [15]
  Concentration (nM), Time 0 min: 988.297 nM and 784.776 nM and 618.66 nM
  Concentration (nM), Time 15 min: 550.618 nM and 957.096 nM and 714.95 nM
  Concentration (nM), Time 30 min: 499.471 nM and 561.118 nM and 588.537 nM
  Concentration (nM), Time 60 min: 417.033 nM and 313.668 nM and 348.927 nM
  Concentration (nM), Time 120 min: 201.833 nM and 266.362 nM and 226.765 nM
[2]
  Linear Regression Results, Best-Fit Values, Slope: -0.009975
[3]
  Hep_Stab_Fail: 0
[3]; Rep 1-3
  Negative Controls, No cells (NC), concentration at 240 min: 409.23 nM and 475.181 nM and 464.709 nM
[4]; [17]
  Css: 0.0422 mg/L and 0.20 uM
[4]
  Clhep: 63.013 L/h
  AED: 101.0389 mg/kg/day
  Fub: 1
  CLint: 3502422 µL/min
[4]; [18]
  Css: 0.20 µM
[5]; [19]
  LOEC: 20.00 µM
[5]; [20]
  LOEC: 20 µM
[6]; [21]
  fraction unbound: 0.6
[6]; Fraction Unbound (fu), replicate A, individual replicate A of the UC run dated in c8
  fraction unbound: 0.667
[6]; Fraction Unbound (fu), replicate B, individual replicate B of the UC run dated in c8
  fraction unbound: 0.57
[6]; Fraction Unbound (fu), replicate C, individual replicate C of the UC run dated in c8
  fraction unbound: 0.565
[6]; Mean Fu (fraction unbound), mean over all UC runs and replicates, human plasma
  fraction unbound: 0.603
[6]; [24]
  fraction unbound: 0.603
[6]; [23]
  fraction unbound: 0.603
[6]; Mean fu, fraction unbound in human plasma, used for IVIVE
  fraction unbound: 0.603
[7]
  Aqueous Fraction, Run-specific Avg: 5392.01
  fup: 0.6030
  Fup.Med: 0.566
  Fup.point: 0.601

## OCC(F)(F)C(F)(F)C(F)(F)C(F)(F)C(F)(F)C(F)(F)C(F)(F)C(F)(F)CO [1H,1H,10H,10H-Perfluorodecane-1,10-diol]
[1]; [8]
  hepatocyte CLint at 1 μM: 56.6 µL/min/1e6 cells
[1]; [9]
  hepatocyte CLint at 1 μM: 56.6 µL/min/1e6 cells
[1]; [10]
  hepatocyte CLint at 1 μM: 49.9 µL/min/1e6 cells
[1]; [11]
  hepatocyte CLint at 1 μM: 56.6 µL/min/1e6 cells
[1]; [12]
  hepatocyte CLint at 1 μM: 56.6 µL/min/1e6 cells
[1]; [13]
  half-life at 1 μM: 0.408 h
[1]; [14]
  hepatocyte CLint at 1 μM: 115 µL/min/1e6 cells
[2]; [15]
  Concentration (nM), Time 0 min: 503.86 nM and 483.613 nM and 411.089 nM
  Concentration (nM), Time 15 min: 181.506 nM and 316.777 nM and 270.544 nM
  Concentration (nM), Time 30 min: 207.766 nM and 203.542 nM and 107.454 nM
[2]
  Linear Regression Results, Best-Fit Values, Slope: -0.0283
[2]; pooled human hepatocyte suspensions, 1 μM
  In Vitro Clint: 49.86 μL/min/10^6 cells
[3]; both sexes, human, heat treated hepatocytes control, 0 vs 240 min, read-out: HT BkgdCl, Half Life
  half-life at 1 μM: 4.63 h
[3]; [16]
  half-life at 1 μM: 3.43 h
[3]
  Hep_Stab_Fail: 0
[3]; heat treated hepatocytes control, 0 vs 240 min
  HT BkgdCl, Slope: -0.002496
[3]; [25]
  Negative Controls, Heat Treated (HT), concentration at 0 min: 370.156 nM and 373.519 nM and 421.129 nM
  Negative Controls, Heat Treated (HT), concentration at 240 min: 211.286 nM and 241.673 nM and 189.092 nM
[3]; no cells control, 0 vs 240 min
  No Cells BkgdCl, Slope: -0.003368
[3]; Rep 1-3
  Negative Controls, No cells (NC), concentration at 0 min: 394.883 nM and 393.112 nM and 400.596 nM
  Negative Controls, No cells (NC), concentration at 240 min: 205.477 nM and 157.76 nM and 169.683 nM
[4]; [17]
  Css: 0.68 mg/L and 1.47 uM
[4]
  Clhep: 4.275 L/h
  AED: 1.3619 mg/kg/day
  Fub: 0.008545
  CLint: 8753422 µL/min
[4]; [18]
  Css: 1.47 µM
[5]; [19]
  LOEC: 2.00 µM
[5]; [20]
  LOEC: 2 µM
[6]; [21]
  fraction unbound: 0.84
[6]; Fraction Unbound (fu), Run-specific Avg, average of one UC run (run date in line above)
  fraction unbound: 0.00495
[6]; [22]
  fraction unbound: 0.83
[6]; Fraction Unbound (fu), replicates A, B, C, single replicate of one UC run (aqueous fraction / Time 5 hr)
  fraction unbound: 0.00438
[6]; [24]
  fraction unbound: 0.841
[6]; Mean Fu, mean fraction unbound over all replicates and runs, UC assay, human plasma
  fraction unbound: 0.00469
[6]; [23]
  fraction unbound: 0.0047
[7]
  Aqueous Fraction: 3710.68 and 3362.14 and 3011.07
  Aqueous Fraction, Run-specific Avg: 3361.30
  fup: 0.0047
  Fup.Med: 0.00408
  Fup.point: 0.00496
[7]; single replicate of one UC run (aqueous fraction / Time 5 hr)
  Fraction Unbound (fu), replicates A, B, C: 0.005168 and 0.005301 and 0.003775 and 0.006151 and 0.003351
